Experimental data reported in patent US9089543B2, “Anti-inflammatory composition containing macrolactin A and a derivative thereof as active ingredients” (DAEWOO PHARMACEUTICAL IND. CO., LTD., priority 2009, dated 2015).
“Also recorded” adds a separate entry of the source.

Tests used:
[1] = test system: IL-6 formation in RAW264.7 cells; test: Inhibition of IL-6 formation (mouse ELISA kit) in LPS-stimulated RAW264.7 cells; format: cell-based, murine; conditions: RAW264.7, LPS
Method: (§1) The present inventors have confirmed the anti-inflammatory effects of the above macrolactin compounds to accomplish the present invention. In order to investigate the anti-inflammatory effects, a murine macrophage RAW264.7 cell line treated with each of the purified compounds was stimulated by LPS (0.1 μg/mL or 1.0 μg/mL, Sigma), and then the formation of inflammation-inducing substances 1) NO and 2) PEG2 and the expression of enzymes related to their formation were analyzed. The formation of 3) pro-inflammatory cytokines, TNF-α, IL-1β, IL-6 and GM-CSF were also analyzed by the same procedures.
(§2) 3) Suppression of pro-inflammatory cytokines by the present macrolactin compounds was determined by using a mouse ELISA kit (KOMA Biotech).
(§3) RAW264.7, a murine macrophage cell line, was obtained from Korean Cell Line Bank (KCLB). It was cultured in Dulvecco's modified Eagle's medium (DMEM, LONZA) containing 10% fetal bovine serum (FBS, LONZA) and 1% penicillin/streptomycin (Sigma) in an incubator at 37° C. under 5% CO2 and then sub-cultured when the cell density reached 80%. After RAW264.7 cells were cultured for 24 hours, MA (1-100 μM), MMA (10 μM), SMA (10 μM) and hydrocortisone (10 μM), which is a well-known substance having anti-inflammatory activity, were added. One hour after the addition, LPS (0.1 or 1.0 μg/ml, Sigma) was added to the mixture, which was then cultured for 8 or 16 hours. Dimethyl sulfoxide (hereinafter, “DMSO”) was used as a negative control, while LPS (0.1 or 1.0 μg/ml, Sigma) was used as a positive control without adding the macrolactin compounds.

[2] = test system: TNF-α formation in RAW264.7 cells; test: Inhibition of TNF-α formation (mouse ELISA kit) in LPS-stimulated RAW264.7 cells; format: cell-based, murine; conditions: RAW264.7, LPS; for inhibition of TNF-α formation: vs control treated with LPS only
Method: as §1, §2, §3

[3] = test system: murine macrophage RAW264.7; test: Cytotoxicity by MTT analysis; format: cell-based; conditions: RAW264.7, MTT, 16 hours
Method: as §3
MTT analysis was used to investigate the cytotoxic effects on murine macrophage RAW264.7 of the present macrolactin compounds. The cells adjusted to 4×10^4 cells/well were cultured in a 96-well plate for 24 hours under the conditions mentioned in Example 2 and then further cultured for 16 hours after being treated with the present macrolactin compounds. After the medium was removed, 100 μl of MTT solution (2 mg/ml PBS) was added, and then the mixture was cultured in an incubator at 37° C. under 5% CO2 for 4 hours. After the MTT solution was removed, 100 μl of DMSO was added, and then the mixture was shake-cultured for 30 minutes in the dark. After the culture, the amount of free formazan was determined at 540 nm by using an ELISA reader.

iNOS protein = test: Formation of iNOS protein by western blot in LPS-stimulated RAW264.7 cells; format: cell-based, murine; conditions: RAW264.7, LPS 0.1 μg/ml, 16 hours
Method: as §3
(§4) The effect of the present macrolactin compounds on the formation of intracellular inflammatory factor, iNOS and COX-2 protein was investigated. Murine macrophage RAW264.7 cells adjusted to 1×10^6 cells/dish were cultured in a 100 mm dish for 24 hours under the conditions mentioned in Example 2 and then further cultured for 16 hours after being treated with the present macrolactin compounds and LPS (0.1 μg/ml, Sigma). The cells were washed 2-3 times with cold PBS and then collected. 100 μl of 50 mM Tris-HCl buffer, pH7.5 (0.1 M KCl, 1 mM EDTA, 1 mM DTT, 0.2 mM PMSF) were added to the collected cells, which were lysed by using liquid nitrogen. The lysate was centrifuged at 4° C. for 10 minutes at 13,000 rpm to collect the supernatant. Protein was quantitatively analyzed by the Bradford method. 50 μg of the protein was subjected to sodium dodecyl sulfate-polyacrylamide gel electrophoresis (SDS-PAGE). The SDS-PAGE gel was transferred to nitrocellulose membrane (Amersham) at 50 V for 2 hours. The nitrocellulose membrane was washed twice with 1× Tris buffered saline (TBS; 0.1 M NaCl, 10 mM Tris-HCl), to which was added 3% gelatin solution for blocking non-specific protein reaction and then reacted at room temperature for 1 hour. […]

[4] = test system: PGE2 formation in RAW264.7 cells; test: Inhibition effect on PGE2 formation (EIA kit) in LPS-stimulated RAW264.7 cells; format: cell-based, murine; conditions: RAW264.7, LPS 0.1 μg/ml, 16 hours; vs control treated with LPS only
Method: as §3
The amount of formed PGE2, an intracellular […] factor, was determined by using an Amersham prostaglandin E2 biotrak Enzymeimmunoassay (EIA) system Kit (GE Healthcare). Murine macrophage RAW264.7 cells adjusted to 2×10^4 cells/well were cultured in a 96-well plate for 24 hours under the conditions mentioned in Example 2 and then further cultured for 16 hours after being treated with the present macrolactin compounds and LPS (0.1 μg/ml, Sigma). The amount of produced PGE2 was calculated using the calibration curve which had been made through the standard solution provided by the manufacturer at an absorbance of 450 nm in a UV spectrometer. The r^2 value of the calibration curve against the standard substance was above 0.99.

[5] = test system: NO formation in RAW264.7 cells; test: Inhibition effect on NO formation (Griess reaction) in LPS-stimulated RAW264.7 cells; format: cell-based, murine; conditions: RAW264.7, LPS 0.1 μg/ml, 16 hours; MA 1-100 μM, MMA, SMA, hydrocortisone 10 μM; vs control treated with LPS only
Method: as §3
NO concentration in cell culture was determined by using a Nitrate/Nitrite colorimetric assay Kit (Cayman). Murine macrophage RAW264.7 cells adjusted to 1×10^5 cells/well were cultured in a 6-well plate for 24 hours under the conditions mentioned in Example 2, and then further cultured for 16 hours after being treated with the present macrolactin compounds and LPS (0.1 μg/ml, Sigma). The cultured media were treated with Griess reagent R1 (sulfanilamide) and then Griess reagent R2 (N-(1-Naphthyl)-ethylenediamine) in a 96-well plate provided by the manufacturer, and then detected the formation of purple azo group from nitrite. The amount of produced NO was calculated using the calibration curve which had been made through the standard solution provided by the manufacturer at an absorbance of 540 nm in a UV spectrometer.

COX-2 mRNA = test: Expression of COX-2 mRNA by real-time PCR in LPS-stimulated RAW264.7 cells; format: cell-based, murine; conditions: RAW264.7, LPS 0.1 μg/ml, 16 hours
Method: as §3
The effect of the present macrolactin compounds on the expression of intracellular inflammatory factors, iNOS and COX-2 mRNA was investigated. Murine macrophage RAW264.7 cells adjusted to 1×10^5 cells/well were cultured in a 6-well plate for 24 hours under the conditions mentioned in Example 2 and then further cultured for 16 hours after being treated with the present macrolactin compounds and LPS (0.1 μg/ml, Sigma). Total RNA of the cultured cells was isolated by Trizol reagent (Sigma) under RNase-free conditions. A cDNA synthesis kit (TAKARA) was used to obtain a template for PCR using the separated total RNA. […]
The extent of iNOS and COX-2 mRNA expression of the mixture was determined by using a real-time gene amplifier (Corbett Life Science Rotor-gene 6000). […] When the mRNA expressions of the samples were compared with each other, that of the housekeeping gene was determined at the same time and then the relative quantity was calculated. By compensating the amount of RNA for the measured value of the housekeeping gene, the amount of mRNA produced in each sample was calculated to Ct (Threshold cycle) value.

[6] = test system: vancomycin-resistant Enterococci (VRE), methicillin-resistant Staphylococcus aureus (MRSA) and Burkholderia cepacia; conditions: against VRE, compounds from Bacillus subtilis DSM 16696; cited from earlier work
[7] = test system: GM-CSF formation in RAW264.7 cells; test: Inhibition of GM-CSF formation (mouse ELISA kit) in LPS-stimulated RAW264.7 cells; format: cell-based, murine; conditions: RAW264.7, LPS
Method: as §1, §2
(§5) RAW264.7, a murine macrophage cell line, was obtained from Korean Cell Line Bank (KCLB). It was cultured in Dulvecco's modified Eagle's medium (DMEM, LONZA) containing 10% fetal bovine serum (FBS, LONZA) and 1% penicillin/streptomycin (Sigma) in an incubator at 37° C. under 5% CO2 and then sub-cultured when the cell density reached 80%. After RAW264.7 cells were cultured for 24 hours, MA (1-100 μM), MMA (10 μM), SMA (10 μM) and hydrocortisone (10 μM), which is a well-known substance having anti-inflammatory activity, were added. One hour after the addition, LPS (0.1 or 1.0 μg/ml, Sigma) was added to the mixture, which was then cultured for 8 or 16 hours. […]

iNOS mRNA = test: Expression of iNOS mRNA by real-time PCR in LPS-stimulated RAW264.7 cells; format: cell-based, murine; conditions: RAW264.7, LPS 0.1 μg/ml, 16 hours; for inhibition of expression of iNOS mRNA: real-time PCR; for inhibition of iNOS mRNA expression compared to hydrocortisone: relative to hydrocortisone (10 μM)
Method: as §3
The effect of the present macrolactin compounds on the expression of intracellular inflammatory factors, iNOS and COX-2 mRNA was investigated. Murine macrophage RAW264.7 cells adjusted to 1×10^5 cells/well were cultured in a 6-well plate for 24 hours under the conditions mentioned in Example 2 and then further cultured for 16 hours after being treated with the present macrolactin compounds and LPS (0.1 μg/ml, Sigma). Total RNA of the cultured cells was isolated by Trizol reagent (Sigma) under RNase-free conditions. A cDNA synthesis kit (TAKARA) was used to obtain a template for PCR using the separated total RNA. To the mixture of 1 μl of Oligo dT Primer (50 μM), 1 μl of dNTP Mixture (10 mM each) and 2 μg of the template RNA, RNase-free dH2O was added to adjust the total volume to 10 μl. The mixture was maintained at 65° C. for 5 minutes and then in ice for 2 minutes. To the mixture of 10 μl of the mixture, 4 μl of 5× PrimeScript™ buffer, 0.5 μl of RNase inhibitor (40 U/μl), and 0.5 μl of PrimeScript™ RTase (200 U/μl), RNase-free dH2O was added to adjust the total volume to 20 μl. The mixture was reacted at 42° C. for 30 minutes to synthesize cDNA.
The extent of iNOS and COX-2 mRNA expression of the mixture was determined by using a real-time gene amplifier (Corbett Life Science Rotor-gene 6000). The operating condition of the real-time gene amplifier was as follows: initial denaturation started at 95° C. for 5 minutes and was then repeated 50 times at 94° C. for 30 seconds, at 57° C. for 30 seconds and 72° C. for 30 seconds. When the mRNA expressions of the samples were compared with each other, that of the housekeeping gene was determined at the same time and then the relative quantity was calculated. By compensating the amount of RNA for the measured value of the housekeeping gene, the amount of mRNA produced in each sample was calculated to Ct (Threshold cycle) value.

[8] = test system: IL-1β formation in RAW264.7 cells; test: Inhibition of IL-1β formation (mouse ELISA kit) in LPS-stimulated RAW264.7 cells; format: cell-based, murine; conditions: RAW264.7, LPS
Method: as §1, §2, §5

COX-2 protein = test: Formation of COX-2 protein by western blot in LPS-stimulated RAW264.7 cells; format: cell-based, murine; conditions: RAW264.7, LPS 0.1 μg/ml, 16 hours
Method: as §3, §4

| SMILES | inhibition of IL-6 formation [1] | inhibition effect on TNF-α formation compared to hydrocortisone / control substances ([2]; relative to hydrocortisone) | inhibition of TNF-α formation [2] | cytotoxicity compared to hydrocortisone [3] | inhibition of formation of iNOS protein (iNOS protein) | inhibition of PGE2 formation [4] | inhibition of NO formation [5] | inhibition of expression of COX-2 mRNA (COX-2 mRNA) | anti-bacterial activity [6] | inhibition of GM-CSF formation [7] | inhibition of expression of iNOS mRNA (iNOS mRNA) | inhibition of iNOS mRNA expression compared to hydrocortisone (iNOS mRNA) | inhibition of IL-1β formation [8] | inhibition of formation of COX-2 protein (COX-2 protein) |
| --- | --- | --- | --- | --- | --- | --- | --- | --- | --- | --- | --- | --- | --- | --- |
| CC1CCC/C=C/C=C/[C@H](O)C[C@@H](O)C/C=C\C=C\[C@@H](O)C/C=C/C=C\C(=O)O1 (stereo partly drawn) [MA, macrolactin A] | strongly inhibited | especially superior inhibition effect | inhibited | lower cytotoxicities | strongly inhibited | strongly inhibited | strongly inhibited | strongly inhibited | anti-bacterial effect against MRSA only | strongly inhibited | strongly suppressed; also recorded: strongly inhibited | comparable to or superior to that of hydrocortisone | strongly inhibited | strongly inhibited |
| C[C@@H]1CCC/C=C/C=C/[C@H](O)C[C@@H](O)C/C=C\C=C\[C@@H](OC(=O)CC(=O)O)C/C=C/C=C\C(=O)O1 [MMA, 7-O-malonyl macrolactin A] | strongly inhibited | – | inhibited | lower cytotoxicities | strongly inhibited | strongly inhibited | strongly inhibited; also recorded: low inhibition activities | strongly inhibited | superior anti-bacterial activity | – | strongly suppressed; also recorded: strongly inhibited | comparable to or superior to that of hydrocortisone | – | strongly inhibited |
| C[C@@H]1CCC/C=C/C=C/[C@H](O)C[C@@H](O)C/C=C\C=C\[C@@H](OC(=O)CCC(=O)O)C/C=C/C=C\C(=O)O1 [SMA, 7-O-succinyl macrolactin A] | strongly inhibited | – | inhibited | lower cytotoxicities | strongly inhibited | strongly inhibited | strongly inhibited; also recorded: low inhibition activities | strongly inhibited | superior anti-bacterial activity | strongly inhibited | strongly suppressed; also recorded: strongly inhibited | comparable to or superior to that of hydrocortisone | strongly inhibited | strongly inhibited |
| C[C@]12CCC(=O)C=C1CC[C@@H]1[C@@H]2[C@@H](O)C[C@@]2(C)[C@H]1CC[C@]2(O)C(=O)CO [hydrocortisone, reference compound] | – | – | – | – | – | – | strongly inhibited | – | – | – | – | – | – | – |
